Assay results published in patent US20230348369A1 (Cytokinetics, Inc., priority 2020, published 2023).

Target: human NAMPT (Homo sapiens, UniProt P43490)
Assay: Human recombinant enzyme assay (NMN fluorescence biochemical assay, activation of NAMPT)
Conditions: Table A, human recombinant NAMPT, NMN formation, 60 min; for EC50: read-out: EC50 Human
Procedure, shortened: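 Activation of recombinant human NAMPT (6 nM) with 2.5 mM ATP, 20 μM PRPP and 150 μM nicotinamide in 50 mM HEPES pH 7.2, 1 mM DTT, 1 mM CHAPS, 50 mM NaCl, 100 mM MgCl2; 60 min, ambient temperature. NMN formed was derivatized with acetophenone/KOH/formic acid, fluorescence read at 355/460 nm after 40 min.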

Chain of human NAMPT (P43490 whole entry): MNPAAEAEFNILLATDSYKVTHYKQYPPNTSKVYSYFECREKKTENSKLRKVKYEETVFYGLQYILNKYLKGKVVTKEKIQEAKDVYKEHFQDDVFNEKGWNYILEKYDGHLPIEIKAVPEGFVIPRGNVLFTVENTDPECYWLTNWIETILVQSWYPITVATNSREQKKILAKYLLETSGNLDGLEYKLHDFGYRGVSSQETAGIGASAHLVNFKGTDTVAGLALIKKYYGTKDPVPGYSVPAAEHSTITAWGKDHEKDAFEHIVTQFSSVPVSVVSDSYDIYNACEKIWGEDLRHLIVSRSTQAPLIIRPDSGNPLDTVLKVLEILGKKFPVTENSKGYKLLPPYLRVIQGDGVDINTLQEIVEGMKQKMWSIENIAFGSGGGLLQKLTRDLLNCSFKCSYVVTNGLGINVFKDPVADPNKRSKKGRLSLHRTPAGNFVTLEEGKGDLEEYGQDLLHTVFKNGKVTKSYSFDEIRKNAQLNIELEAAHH

`Cc1cc(C(=O)NCC2CC3(C2)CC(NC(=O)NCc2ccc(Cl)cc2)C3)ccn1` (stereo not drawn) [Compound 246, N-((6-(3-(4-chlorobenzyl)ureido)spiro[3.3]heptan-2-yl)methyl)-2-methylisonicotinamide] was tested, and the “AC1.4 Human” value was 2.1 µM and the EC50 was 4.2 µM.

In the case of `O=C(NCc1ccc(Cl)cc1)NC1CC2(CC(CNC(=O)c3cn[nH]c3)C2)C1` (stereo not drawn) [Compound 247, N-((6-(3-(4-chlorobenzyl)ureido)spiro[3.3]heptan-2-yl)methyl)-1H-pyrazole-4-carboxamide], the “AC1.4 Human” value is reported as 2.8 µM and the EC50 is reported as 7.9 µM.

`Cc1ccc(C(=O)N(C)CC2CC3(C2)CC(NC(=O)NCc2ccc(Cl)cc2)C3)cn1` (stereo not drawn) [Compound 248, N-((6-(3-(4-chlorobenzyl)ureido)spiro[3.3]heptan-2-yl)methyl)-N,6-dimethylnicotinamide] was tested, and the “AC1.4 Human” value was 5.0 µM and the EC50 was 6.6 µM.

For `O=C(NCc1ccc(Cl)cc1)NC1CC2(CC(CNC(=O)C3CCOCC3)C2)C1` (stereo not drawn) [Compound 250, N-((6-(3-(4-chlorobenzyl)ureido)spiro[3.3]heptan-2-yl)methyl)tetrahydro-2H-pyran-4-carboxamide], the “AC1.4 Human” value was 1.8 µM and the EC50 was 7.7 µM.

For `O=C(NCc1ccc(Cl)cc1)NC1CC2(CC(CNC(=O)C3CCCC3)C2)C1` (stereo not drawn) [Compound 251, N-((6-(3-(4-chlorobenzyl)ureido)spiro[3.3]heptan-2-yl)methyl)cyclopentanecarboxamide], the “AC1.4 Human” value was 2.6 µM and the EC50 was 6.1 µM.

With `O=C1CC(C(=O)NCC2CC3(C2)CC(NC(=O)NCc2ccc(Cl)cc2)C3)CCN1` (stereo not drawn) [Compound 252, N-((6-(3-(4-chlorobenzyl)ureido)spiro[3.3]heptan-2-yl)methyl)-2-oxopiperidine-4-carboxamide] the “AC1.4 Human” value was 2.8 µM and the EC50 was 9.1 µM.

For `CC(C1CC2(CC(NC(=O)NCc3ccc(Cl)cc3)C2)C1)N1CCN(C)C(=O)C1` (stereo not drawn) [Compound 253, 1-(4-chlorobenzyl)-3-(6-(1-(4-methyl-3-oxopiperazin-1-yl)ethyl)spiro[3.3]heptan-2-yl)urea], the “AC1.4 Human” value was 3.2 µM and the EC50 was 5.5 µM.

In the case of `CN1CCN(CC2CC3(C2)CC(NC(=O)NCc2ccc(Cl)cc2)C3)C(c2ccccc2)C1` (stereo not drawn) [Compound 254, 1-(4-chlorobenzyl)-3-(6-((4-methyl-2-phenylpiperazin-1-yl)methyl)spiro[3.3]heptan-2-yl)urea], the “AC1.4 Human” value is reported as 1.5 µM and the EC50 is reported as 2.3 µM.

In the case of `Cc1ccc(C(=O)NC(C)C2CC3(CC(NC(=O)NCc4ccc(Cl)cc4)C3)C2)cn1` (stereo not drawn) [Compound 255, N-(1-(6-(3-(4-chlorobenzyl)ureido)spiro[3.3]heptan-2-yl)ethyl)-6-methylnicotinamide], the “AC1.4 Human” value is reported as 2.5 µM and the EC50 is reported as 6.5 µM.

For `O=C(CCCCCNC(=O)NCc1ccc(Cl)cc1)NC1CCCCC1` [Compound 257, 6-(3-(4-chlorobenzyl)ureido)-N-cyclohexylhexanamide], the “AC1.4 Human” value was 2.7 µM and the EC50 was 17.9 µM.

For `O=C(CCCCCNC(=O)NCc1ccc(Cl)cc1)NC1CCCC1` [Compound 258, 6-(3-(4-chlorobenzyl)ureido)-N-cyclopentylhexanamide], the “AC1.4 Human” value was 3.8 µM and the EC50 was 23.1 µM.

For `O=C(NCCCCCC(=O)N1CCOCC1)NCc1ccc(Cl)cc1` [Compound 259, 1-(4-chlorobenzyl)-3-(6-morpholine-6-oxohexyl)urea], the “AC1.4 Human” value was 8.6 µM and the EC50 was 59.4 µM.

`CC(C)(C)CN1CCN(C(=O)CCCCCNC(=O)NCc2ccc(Cl)cc2)CC1` [Compound 260, 1-(4-chlorobenzyl)-3-(6-(4-neopentylpiperazin-1-yl)-6-oxohexyl)urea] was tested, and the “AC1.4 Human” value was 2.0 µM and the EC50 was 17.5 µM.

In the case of `CC(C)(O)CN1CCN(C(=O)CCCCCNC(=O)NCc2ccc(Cl)cc2)CC1` [Compound 261, 1-(4-chlorobenzyl)-3-(6-(4-(2-hydroxy-2-methylpropyl)piperazin-1-yl)-6-oxohexyl)urea], the “AC1.4 Human” value is reported as 2.8 µM and the EC50 is reported as 42.9 µM.

With `Cc1ccccc1NC(=O)CCCCCNC(=O)NCc1ccc(Cl)cc1` [Compound 262, 6-(3-(4-chlorobenzyl)ureido)-N-(o-tolyl)hexanamide] the “AC1.4 Human” value was 0.6 µM and the EC50 was 4.9 µM.

With `O=C(CCCCCNC(=O)NCc1ccc(Cl)cc1)Nc1ccncc1` [Compound 263, 6-(3-(4-chlorobenzyl)ureido)-N-(pyridin-4-yl)hexanamide] the “AC1.4 Human” value was 1.4 µM and the EC50 was 10.2 µM.

With `Cc1cccc(N(C)C(=O)CCCCCNC(=O)NCc2ccc(Cl)cc2)c1` [Compound 264, 6-(3-(4-chlorobenzyl)ureido)-N-methyl-N-(m-tolyl)hexanamide] the “AC1.4 Human” value was 1.0 µM and the EC50 was 6.7 µM.

For `CN(C(=O)CCCCCNC(=O)NCc1ccc(Cl)cc1)c1ccncc1` [Compound 265, 6-(3-(4-chlorobenzyl)ureido)-N-methyl-N-(pyridin-4-yl)hexanamide], the “AC1.4 Human” value was 0.8 µM and the EC50 was 1.6 µM.

With `Cc1ccccc1N(C)C(=O)CCCCCNC(=O)NCc1ccc(Cl)cc1` [Compound 266, 6-(3-(4-chlorobenzyl)ureido)-N-methyl-N-(o-tolyl)hexanamide] the “AC1.4 Human” value was 0.5 µM and the EC50 was 1.8 µM.

In the case of `Cc1cccc(CN(C)C(=O)CCCCCNC(=O)NCc2ccc(Cl)cc2)c1` [Compound 267, 6-(3-(4-chlorobenzyl)ureido)-N-methyl-N-(3-methylbenzyl)hexanamide], the “AC1.4 Human” value is reported as 2.0 µM and the EC50 is reported as 7.9 µM.

For `CN(Cc1ccccc1)C(=O)CCCCCNC(=O)NCc1ccc(Cl)cc1` [Compound 269, N-benzyl-6-(3-(4-chlorobenzyl)ureido)-N-methylhexanamide], the “AC1.4 Human” value was 0.7 µM and the EC50 was 5.1 µM.

`CN(C(=O)CCCCCNC(=O)NCc1ccc(Cl)cc1)c1cccnc1` [Compound 270, 6-(3-(4-chlorobenzyl)ureido)-N-methyl-N-(pyridin-3-yl)hexanamide] was tested, and the “AC1.4 Human” value was 1.1 µM and the EC50 was 3.9 µM.

`CN(C(=O)CCCCCNC(=O)NCc1ccc(Cl)cc1)c1ccccn1` [Compound 271, 6-(3-(4-chlorobenzyl)ureido)-N-methyl-N-(pyridin-2-yl)hexanamide] was tested, and the “AC1.4 Human” value was 0.9 µM and the EC50 was 3.7 µM.

With `O=C(CCCCCNC(=O)NCc1ccc(Cl)cc1)Nc1ccccc1F` [Compound 272, 6-(3-(4-chlorobenzyl)ureido)-N-(2-fluorophenyl)hexanamide] the “AC1.4 Human” value was 0.9 µM and the EC50 was 2.6 µM.

`O=C(CCCCCNC(=O)NCc1ccc(Cl)cc1)Nc1ccccc1-c1ccccc1` [Compound 273, N-([1,1′-biphenyl]-2-yl)-6-(3-(4-chlorobenzyl)ureido)hexanamide] was tested, and the “AC1.4 Human” value was 0.9 µM and the EC50 was 0.3 µM.

With `CN(C(=O)CCCCCNC(=O)NCc1ccc(Cl)cc1)c1ccccc1F` [Compound 274, 6-(3-(4-chlorobenzyl)ureido)-N-(2-fluorophenyl)-N-methylhexanamide] the “AC1.4 Human” value was 1.9 µM and the EC50 was 0.3 µM.

With `Cc1ccccc1C(=O)NCCCCCNC(=O)NCc1ccc(Cl)cc1` [Compound 275, N-(5-(3-(4-chlorobenzyl)ureido)pentyl)-2-methylbenzamide] the “AC1.4 Human” value was 1.9 µM and the EC50 was 11.4 µM.

With `Cc1cccc(C(=O)NCCCCCNC(=O)NCc2ccc(Cl)cc2)c1` [Compound 276, N-(5-(3-(4-chlorobenzyl)ureido)pentyl)-3-methylbenzamide] the “AC1.4 Human” value was 1.5 µM and the EC50 was 9.5 µM.

`O=C(NCCCCCNC(=O)c1cccnc1)NCc1ccc(Cl)cc1` [Compound 277, N-(5-(3-(4-chlorobenzyl)ureido)pentyl)nicotinamide] was tested, and the “AC1.4 Human” value was 3.2 µM and the EC50 was 6.9 µM.

In the case of `Cc1ccc(NC(=O)CCCCCNC(=O)NCc2ccc(Cl)cc2)cn1` [Compound 278, 6-(3-(4-chlorobenzyl)ureido)-N-(6-methylpyridin-3-yl)hexanamide], the “AC1.4 Human” value is reported as 1.8 µM and the EC50 is reported as 7.1 µM.

`O=C(NCCCCCNC(=O)c1ccccn1)NCc1ccc(Cl)cc1` [Compound 279, N-(5-(3-(4-chlorobenzyl)ureido)pentyl)picolinamide] was tested, and the “AC1.4 Human” value was 1.8 µM and the EC50 was 11.8 µM.

`O=C(NCCCCCNC(=O)c1ccccc1F)NCc1ccc(Cl)cc1` [Compound 280, N-(5-(3-(4-chlorobenzyl)ureido)pentyl)-2-fluorobenzamide] was tested, and the “AC1.4 Human” value was 0.7 µM and the EC50 was 2.6 µM.

With `Cc1ccc(C(=O)NCCCCCNC(=O)NCc2ccc(Cl)cc2)cn1` [Compound 281, N-(5-(3-(4-chlorobenzyl)ureido)pentyl)-6-methylnicotinamide] the “AC1.4 Human” value was 1.3 µM and the EC50 was 3.9 µM.

With `COc1ccc(CNC(=O)NCCCCCC(=O)N(C)c2ccccc2F)cc1` [Compound 282, N-(2-fluorophenyl)-6-(3-(4-methoxybenzyl)ureido)-N-methylhexanamide] the “AC1.4 Human” value was 0.1 µM and the EC50 was 3.9 µM.

For `O=C(Cc1cccnc1)NCCCCCNC(=O)NCc1ccc(Cl)cc1` [Compound 283, N-(5-(3-(4-chlorobenzyl)ureido)pentyl)-2-(pyridin-3-yl)acetamide], the “AC1.4 Human” value was 8.6 µM and the EC50 was 32.8 µM.

`O=C(CCCCCNC(=O)NCc1ccc(Cl)cc1)Nc1ccc(F)cc1` [Compound 284, 6-(3-(4-chlorobenzyl)ureido)-N-(4-fluorophenyl)hexanamide] was tested, and the “AC1.4 Human” value was 2.8 µM and the EC50 was 4.2 µM.

`O=C(CCCCCNC(=O)NCc1ccc(Cl)cc1)Nc1cccc(F)c1` [Compound 285, 6-(3-(4-chlorobenzyl)ureido)-N-(3-fluorophenyl)hexanamide] was tested, and the “AC1.4 Human” value was 3.5 µM and the EC50 was 9.4 µM.

`CN(C(=O)CCCCCNC(=O)NCc1ccncc1)c1ccccc1F` [Compound 286, N-(2-fluorophenyl)-N-methyl-6-(3-(pyridin-4-ylmethyl)ureido)hexanamide] was tested, and the “AC1.4 Human” value was 0.2 µM and the EC50 was 2 µM.

In the case of `O=C(NCCCCC1CCN(C(=O)c2cccnc2)CC1)NCc1ccc(Cl)cc1` [Compound 289, 1-(4-chlorobenzyl)-3-(4-(1-nicotinoylpiperidin-4-yl)butyl)urea], the “AC1.4 Human” value is reported as 1.1 µM and the EC50 is reported as 7.7 µM.
